Experimental data: patent US6583122B2, “Nucleosides and oligonucleotides containing boron clusters” (Emory University, priority 1993, dated 2003)
Entries after “also recorded” stand apart in the source; their conditions may differ.

What was measured:
[1] = tested on: YMDD motif of HIV-1 RT; experiment: In vitro site directed mutagenesis of HIV-1 reverse transcriptase gene, transformation into E. coli and sequencing; format: cell-based; details: sequencing of mutants; for amino acid change: YMDD motif
Source text: Example 6 describes the in vivo mutation of the RT gene within the YMDD motif, incorporated into a proper vector in E. coli cells. The mutagenic oligonucleotide DNA target region is the conserved YMDD motif (nucleotides 5′ 2678 to 3′ 2689) of HIV-1 RT. The mutagenic oligonucleotides used were
The procedure for in vitro site directed mutagenesis used in this experiment was a modification of that used in the Altered Sites mutagenesis Kit #Q6210 (Promega Corp., Madison, Wis.). Briefly, oligonucleotides, 5′-AATACATGGA(CDU)GATTTGTAT-3′ (SEQ ID NO:1) and 5′-AATACATGG(CDU)(CDU)GATTTGTAT-3′ (SEQ ID NO:2), and a control, located on the putative catalytic active site for HIV-1 RT (5′-2676 to 3′-2696) were 5′ phosphorylated using T4 polynucleotide kinase. The reaction was terminated by heating to 70° C. for 10 min. The mutagenesis annealing reaction was performed by adding 0.05 pmol of pHIVALT-1 ssDNA, 0.25 pmol ampicillin repair oligonucleotide (supplied in the kit), 1.25 pmol of the 5′ phosphorylated mutagenic oligo, and an annealing buffer supplied in the kit in a final volume of 20 μL. The control oligonucleotide reactions for this experiment were done separately along with an added reaction that contained ampicillin repair oligo but no mutagenic oligo 5′-AATACATGGA(CDU)GATTTGTAT-3′ (SEQ ID NO: 1) and 5′-AATACATGG(CDU)(CDU) GATTTGTAT-3′ (SEQ ID NO:2) and control unmodified. The reactions were then heated to 70° C. for 5 min and allowed to cool to room temperature over a 15-20 min period. The annealing reactions were placed on ice and the following reagents were added: 3 μL 10× synthesis buffer (supplied in kit), 1 μL T4 DNA polymerase (10 U/μL ), 1 μL T4 DNA ligase (2 U/μL ), and 5 μL sterile dHO. The 30 μL reaction was incubated at 37° C. for 90 min to perform second strand synthesis and ligation. […]

[2] = tested on: d(A)12; experiment: Melting temperature (Tm) of duplexes with d(A)12; format: binding; details: for Tm: d(A)12 as complementary strand, 1:1, PIPES buffer at 120 mM NaCl
Description: Melting Temperature (Tm) Measurements. Samples for Tm measurements were prepared by the addition of concentrated stock solutions of the d(T)12 (18) or CDU modified d(T)12 (19-24) and d(A)12stock solution to 1.0 mL 10 mM 1,4-piperazine-bis-(ethane-sulfonic acid) (PIPES) buffer (pH 7.0) containing 100 mM NaCl, and 1 mM EDTA, in amounts to give a 1:1 ratio. Each strand was present at 40 μM. Molar extinction coefficients ε260 (per base) were calculated as following: 18: 8,150; d(A)12: 12,280; 19-24: 8,200. The samples were heated to 85° C. and cooled slowly to room temperature before melting. The insulated cell compartment of the UV spectrophotometer was continuously warmed from 0° C. to 85° C. at the rate 0.5° C. per minute. Samples were heated in quartz cuvettes fitted with a teflon stopper (1 cm path length). The absorption change at 260 nm was followed as a function of temperature, and Tm values were obtained from first derivative plots after the data were transferred to a Macintosh computer for visualization and analysis.

[3] = tested on: calf spleen phosphodiesterase; experiment: Resistance to calf spleen phosphodiesterase; format: in vitro ADME; details: in words
[4] = tested on: Phosphodiesterase I (EC 3.1.4.1) type VIII from Crotalus durissus terrificus venom; experiment: Stability towards snake venom phosphodiesterase (SVPD) 3′-exonuclease, HPLC; format: in vitro ADME; details: for % remaining: SVPDE; for T½: degradation by SVPDE, disappearance of 12-mer (11-mer for CDU-modified oligos)
Description: Resistance of dodeca (thymidine phosphates) containing CDU (19-24) against phosphodiesterase I (EC 3.1.4.1): To 100 mM Tris-HCl buffer, pH 8.9 (90 μL) containing 20 mM MgCl2, 0.1 A260 ODU of oligonucleotide 19-24 (5 μL), 1.5×10-3 unit (5 μL) of phosphodiesterase was added. A blank with no enzyme, and a control reaction with d(T)12 were assayed simultaneously. Reactions were maintained at 37° C. for 10 minutes and then 50 μL aliquots were analyzed by HPLC under conditions described above.
The replacement of all natural phosphodiester linkages within oligonucleotide chain by methylphosphonate ones is an example of modifications that ensure complete stability of the oligonucleotide towards exo- and endonucleases. To test the resistance of CDU-oligonucleotides towards 3′-exonucleolytic activity (hydrolysis of the oligonucleotide from 3′-end), snake venom phosphodiesterase (SVPD) from Crotalus durissus terrificus was used. It was discovered that these oligonucleotides are remarkably stable to 3′-exonucleases if the CDU residue is incorporated in the 3′- or both 3′- and 5′-end. The oligonucleotide bearing both 3′- and 5′-modifications (24) was also resistant to SVPD and calf spleen phosphodiesterase.
The half-life (T½) of 3′-CDU-, 3′,5′-CDU- and 3′CDU2-oligonucleotides were determined by kinetic study of their degradation by SVPDE (snake venom phosphodiesterase). Aliquots of enzymatic reaction (0, 5, 10, 20, 40, 80 and 240 minutes) were analyzed by HPLC. Calculations of half life time were based on the disappearance of 12-mer (or 11-mer in the case of CDU-modified oligos) after standardization with 2′-deoxycytidine used as internal standard.

[5] = tested on: polyriboadenylic acid; experiment: Melting temperature (Tm) of duplexes with polyriboadenylic acid; format: binding; details: polyriboadenylic acid as target; PIPES buffer at 120 mM NaCl

| Substance | Tm [2] [°C] | % remaining ([4]; time 0 min) [%] | % remaining ([4]; time 5 min) [%] | % remaining ([4]; time 10 min) [%] | % remaining ([4]; time 40 min) [%] | T½ [4] [min] | Tm [5] [°C] | other results |
| --- | --- | --- | --- | --- | --- | --- | --- | --- |
| 5′-AATACATGGA(CDU)GATTTGTAT-3′ [RL-1] |  |  |  |  |  |  |  | clones in which the mutation occurred next to the base opposite to CDU on the complimentary strand [1]: 60%; amino acid change [1]: YMDD to YMVD; also recorded: YMDD to YMGD |
| 5′CDUd(T)9CDUd(T) [Oligomer 24] | 20.0 | 100 | 56.2 | 38.1 | 14.8 | 5.06 | 17.0 | resistance to calf spleen phosphodiesterase [3]: resistant; resistance towards 3′-exonucleolytic activity (SVPD) ([4]; in words): resistant |
| 5′d(T)CDUd(T)10 [Oligomer 20] | 27.2 |  |  |  |  |  | 25.7 |  |
| 5′d(T)6CDUd(T)5 [Oligomer 21] | 15.2 |  |  |  |  |  |  |  |
| 5′d(T)10CDUd(T) [Oligomer 22] | 20.5 | 100 | 54.8 | 44.0 | 23.2 | 6.7 |  | difference in Tm ([2]; between oligonucleotides 20 and 22): 7-8 °C; % remaining ([4]; time 20 min): 38.3%; % remaining ([4]; time 80 min): 11.0% |
| 5′d(T)9(CDU)2d(T) [Oligomer 23] | 15.3 | 100 | 82.0 |  | 78.9 | 76.2 | 10.0 | % remaining ([4]; time 20 min): 80.0%; % remaining ([4]; time 80 min): 54.0%; % remaining ([4]; time 240 min): 10.5% |
| d(T)12 [Oligomer 18, reference compound] | 29.0 | 100 | 9.1 | 2.6 |  | 0.5 | 30.0 |  |
| 5′CDUd(T)11 [Oligomer 19] |  |  |  |  |  |  |  | Tm ([2]; listed as 19): 28.0 °C; Tm ([2]; listed as CDU(dT)11): 28.8 °C |
| 5′-AATACATGG(CDU)(CDU)GATTTGTAT-3′ [RL-2] |  |  |  |  |  |  |  | amino acid change [1]: YMDD to YRVD |
